The experiment concerns PTEN-P2/GFP prostate cancer cells. Briefly: Effect of 1,4-naphthoquinone analogs on PTEN-P2/GFP cell proliferation (WST-1 cell viability, 24 h). The settings on record: Mus musculus, WST-1, medium with 10% FBS and DHT, read-out: PTEN-P2/GFP cell proliferation, percent of control. It counts as cell-based. The protocol: Cells are grown in phenol red-free DMEM medium containing 10% FBS, 2 mM L-glutamine, 100 U/ml penicillin/100 μg/ml streptomycin, insulin-selenium-transferrin (5 μg/ml insulin), and DHT 10^−8M final. Androgen withdrawal is achieved by not adding DHT to the medium. Cells are maintained in a humidified incubator at 37° C. and 5% CO2. G418 (100 μg/ml) is added to maintain stable expression of H2B-GFP.
100 microliters of PTEN-P2/GFP prostate cancer cells were plated at a density of 8000 cells/well in 96-well plates (triplicates) in growing medium containing 10% Fetal Bovine Serum and DHT. The next day, increasing concentrations of a 1,4-naphthoquinone analog (diluted from 10 mM DMSO stock solutions) were added. DMSO used as solvent for all analogs, was kept constant through the 96-well plates. The control consisted of DMSO alone. The cells were subsequently incubated for 24 hours at 37° C. and 5% CO2 in normal cell growth conditions. Cell viability was assessed by adding 9 μL/well of WST-1 reagent (Clontech), which measured mitochondrial activity of live cells. […] The incubation time was 3 hours at 37° C. Optical density of the cell samples was measured at 460 nm, by using plate reader Spectra Max 250 (Molecular Devices). The drug was determined to be cytotoxic when OD values show an inverse correlation with analog concentrations. The results are shown in TABLES 3.1-3.4, FIGS. 2A-2E, and FIGS. 3A-3D.
Background: Tetrazolium assays rely on reduction of a dye to a coloured formazan, in cell work by metabolically active cells.

The values that follow come from US10577315B2, “Compositions and methods for treatment of prostate carcinoma” (Pellficure Pharmaceuticals, Inc., priority 2014, dated 2020).

Structures are written as SMILES.

On to `CC(=O)NC1=C(Oc2ccccc2)C(=O)c2ccccc2C1=O` [Analog F38, N-(1,4-dioxo-3-phenoxy-1,4-dihydronaphthalen-2-yl)acetamide], for which the activity at 2 µM was determined as 95.8%, the activity at 3 µM was 87%, the activity at 4 µM was 71.7% and the activity at 5 µM turned out to be 54%. The activity at 6 µM was 41%, the activity at 7 µM came to 30.7%, the activity at 10 µM came to 16.6% and the activity at 15 µM was 14.7%. Moreover, the activity at 25 µM was found to be 14.3%.

Take `CC(=O)NC1=C(Cl)C(=O)c2ccccc2C1=O` [Analog F37, 2-N-acetylamino-3-chloro-1,4-naphthoquinone]: the activity at 2 µM came to 101%, the activity at 3 µM came to 94.4%, the activity at 4 µM amounted to 86.6% and the activity at 5 µM came to 71.4%. Further, the activity at 6 µM was found to be 55.7%, the activity at 7 µM was 36.7%, the activity at 10 µM is 17.6% and the activity at 15 µM is 13.9%. Further, the activity at 25 µM is 13.6%.

`Cc1cc(OC2=CC(=O)c3ccccc3C2=O)ccc1Cl` [Analog F15, 2-(4-chloro-3-methylphenoxy)naphthalene-1,4-dione]: the activity at 1.2 µM was 95.6%, the activity at 2.5 µM was 89%, the activity at 5 µM turned out to be 97.1% and the activity at 7.5 µM was determined as 55.5%. The activity at 10 µM amounted to 4.3%, the activity at 15 µM is 1.67% and the activity at 20 µM was 2.4%.

As for `COc1ccc(OC)c2c1C(=O)C=CC2=O` [Analog F52, 5,8-dimethoxy-1,4-naphthoquinone], the activity at 1 µM amounted to 106%, the activity at 2 µM came out at 108%, the activity at 3 µM was determined as 112% and the activity at 4 µM is 113%. In addition, the activity at 5 µM turned out to be 111%, the activity at 6 µM came to 106%, the activity at 7 µM amounted to 93.3% and the activity at 10 µM was determined as 52.1%. Also, the activity at 25 µM was 11.2% and the activity at 50 µM is 11.9%.

Turning to `O=C1C=C(Oc2ccc(Cl)cc2Cc2ccccc2)C(=O)c2ccccc21` [Analog F13, 2-(2-benzyl-4-chlorophenoxy)naphthalene-1,4-dione], the activity at 1.2 µM was 129%, the activity at 2.5 µM was 119%, the activity at 5 µM is 60.5% and the activity at 7.5 µM was determined as 17.5%. For the same compound, the activity at 10 µM amounted to 1.69%, the activity at 15 µM was 2.19% and the activity at 20 µM stood at 2.53%.

Take `COc1ccc(OC2=CC(=O)c3ccccc3C2=O)c(Cl)c1` [Analog F16, 2-(2-chloro-4-methoxyphenoxy)naphthalene-1,4-dione]: the activity at 1.2 µM worked out at 92.8%, the activity at 2.5 µM amounted to 97%, the activity at 5 µM came out at 82.5% and the activity at 7.5 µM came out at 12%. In addition, the activity at 10 µM is 0.73%, the activity at 15 µM was 1.43% and the activity at 20 µM is 2.3%.

On to `O=C1C(Oc2c(F)cc(F)cc2F)=C(Oc2c(F)cc(F)cc2F)C(=O)c2ccccc21` [Analog F22, 2,3-bis(2,4,6-trifluorophenoxy)naphthalene-1,4-dione], for which the activity at 1.2 µM worked out at 91.2%, the activity at 2.5 µM is 103%, the activity at 5 µM was 105% and the activity at 7.5 µM was 107%. In addition, the activity at 10 µM was 104%, the activity at 15 µM came out at 105% and the activity at 20 µM is 101%.

Turning to `O=C(NCCCl)Oc1ccc(OC2=C(Oc3ccc(OC(=O)NCCCl)cc3)C(=O)c3ccccc3C2=O)cc1` [Analog F34, 2,3-bis(4-((2-chloroethyl)carbamoyloxy)phenoxy)-1,4-naphthoquinone], the activity at 2 µM worked out at 74.5%, the activity at 3 µM worked out at 49.6%, the activity at 4 µM amounted to 35.8% and the activity at 5 µM turned out to be 26%. The activity at 6 µM came to 19.3%, the activity at 7 µM was determined as 17.2%, the activity at 10 µM worked out at 14.2% and the activity at 15 µM was 14.2%. Also, the activity at 25 µM came to 14.5%.

Turning to `O=C1C(Br)=C(Oc2ccccc2)C(=O)c2ccccc21` [Analog F18, 2-bromo-3-phenoxy-1,4-naphthoquinone], the activity at 2 µM turned out to be 96.6%, the activity at 3 µM came to 92.5%, the activity at 4 µM was determined as 85.5% and the activity at 5 µM is 69.8%. Further, the activity at 6 µM is 53.5%, the activity at 7 µM was 45%, the activity at 10 µM worked out at 20.3% and the activity at 15 µM was determined as 11.1%. In addition, the activity at 25 µM turned out to be 9.64%.

Regarding `CC1=CC(=O)c2c(OCCCCI)cccc2C1=O` [Analog F48, 5-(4-iodobutoxy)-2-methyl-1,4-naphthoquinone], the activity at 1 µM turned out to be 103%, the activity at 2 µM was determined as 102%, the activity at 3 µM turned out to be 102% and the activity at 4 µM came to 102%. Moreover, the activity at 5 µM amounted to 109%, the activity at 6 µM worked out at 112%, the activity at 7 µM is 115% and the activity at 10 µM came to 103%. Besides, the activity at 25 µM was found to be 11% and the activity at 50 µM is 10%.

For `COc1ccc(OC2=C(NC(C)=O)C(=O)c3ccccc3C2=O)cc1` [Analog F41, N-(3-(4-methoxyphenoxy)-1,4-dioxo-1,4-dihydronaphthalen-2-yl)acetamide], the activity at 2 µM was determined as 95.1%, the activity at 3 µM is 89.8%, the activity at 4 µM was determined as 84.5% and the activity at 5 µM is 75%. The activity at 6 µM is 69.6%, the activity at 7 µM came out at 63.9%, the activity at 10 µM is 36.9% and the activity at 15 µM is 13.5%. The activity at 25 µM is 12.6%.

`CC(=O)NC1=C(Oc2ccc(OC3=C(NC(C)=O)C(=O)c4ccccc4C3=O)cc2)C(=O)c2ccccc2C1=O` [Analog F44, N,N′-((1,4-phenylenebis(oxy))bis(1,4-dioxo-1,4-dihydronaphthalene-3,2-diyl))diacetamide]: the activity at 2 µM stood at 106%, the activity at 3 µM worked out at 102%, the activity at 4 µM is 69% and the activity at 5 µM stood at 58.6%. In addition, the activity at 6 µM amounted to 50.5%, the activity at 7 µM came out at 45.4%, the activity at 10 µM came to 38.7% and the activity at 15 µM stood at 20.9%. In addition, the activity at 25 µM amounted to 17.1%.

For `CC(=O)NC1=C(Oc2ccc(Cl)cc2)C(=O)c2ccccc2C1=O` [Analog F39, N-(3-(4-chlorophenoxy)-1,4-dioxo-1,4-dihydronaphthalen-2-yl)acetamide], the activity at 2 µM is 102%, the activity at 3 µM worked out at 82.2%, the activity at 4 µM stood at 70.6% and the activity at 5 µM came out at 57.5%. Also, the activity at 6 µM was 41.5%, the activity at 7 µM is 29.4%, the activity at 10 µM is 14.3% and the activity at 15 µM was found to be 12%. Also, the activity at 25 µM amounted to 12.7%.

With `O=C1C=C(Oc2cc(F)cc(F)c2)C(=O)c2ccccc21` [Analog F17, 2-(3,5-difluorophenoxy)naphthalene-1,4-dione], the activity at 1.2 µM came out at 97%, the activity at 2.5 µM came out at 91.8%, the activity at 5 µM was 88.7% and the activity at 7.5 µM is 78.2%. The activity at 10 µM is 71.5%, the activity at 15 µM came out at 1.07% and the activity at 20 µM came out at 2.53%.
